Measured values from article PMC11239830, “Synthetic macrolides overcoming MLSBK-resistant pathogens” (Cell Discovery, 2024).
Values after ≈ are worked out from the molar mass of the structure shown. Like-named read-outs stand apart in the source and are kept apart here.

How the values were obtained:
Assay in all cases: MIC, broth microdilution
S. pyogenes = format: cell-based, Streptococcus pyogenes; settings: S. pyogenes 12-206, c-ermTR
Procedure: (§1) MICs were determined by the microdilution method according to the Clinical and Laboratory Standards Institute guidelines. […] Finally, the 96-well plates were incubated at 37 °C for 16–20 h to observe and record the results. […] The assay for MICs was replicated at least three times.

S. pneumoniae = format: cell-based, Streptococcus pneumoniae
Procedure: as §1

H. influenzae = format: cell-based, Haemophilus influenzae
Procedure: as §1

S. aureus = format: cell-based, Staphylococcus aureus
Procedure: as §1

[1] = Streptococcus pyogenes, read-out: MIC
[2] = Streptococcus pneumoniae, ATCC49619, S. pneumoniae ATCC49619, Ery-S, read-out: MIC
[3] = Streptococcus pneumoniae, S. pneumoniae 07P390, c-ermB, read-out: MIC
[4] = Streptococcus pneumoniae, S. pneumoniae PU09, mef, read-out: MIC
[5] = Haemophilus influenzae, ATCC49247, H. influenzae ATCC49247, Azi-S, read-out: MIC
[6] = Staphylococcus aureus, S. aureus 15B196, c-ermB, read-out: MIC
[7] = Staphylococcus aureus, S. aureus PU32, i-ermA, read-out: MIC

SMILES	MIC (S. pyogenes; [1]) [µg/mL]	MIC (S. pneumoniae; [2]) [µg/mL]	MIC (S. pneumoniae; [3]) [µg/mL]	MIC (S. pneumoniae; [4]) [µg/mL]	MIC (H. influenzae; [5]) [µg/mL]	MIC (S. aureus; [6]) [µg/mL]	MIC (S. aureus; [7]) [µg/mL]	MIC (S. pyogenes) [µg/mL]	MIC (S. pneumoniae; S. pneumoniae 07P390, c-ermB) [µg/mL]	MIC (S. pneumoniae; S. pneumoniae ATCC49619, Ery-S) [µg/mL]	MIC (S. pneumoniae; S. pneumoniae PU09, mef) [µg/mL]	MIC (H. influenzae; H. influenzae ATCC49247, Azi-S) [µg/mL]	MIC (S. aureus; S. aureus 15B196, c-ermB) [µg/mL]	MIC (S. aureus; S. aureus PU32, i-ermA) [µg/mL]
CC[C@H]1OC(=O)[C@H](C)[C@@H](OC(=O)NCCCCCCC#Cc2ccc3c(=O)c(C(=O)O)cn(C)c3c2)[C@H](C)[C@@H](O[C@@H]2O[C@H](C)C[C@H](N(C)C)[C@H]2O)[C@](C)(OC)C[C@@H](C)NC(=O)[C@H](C)[C@@H](O)[C@]1(C)O [126g]	2 (≈ 2.09 µM)	0.06 (≈ 0.0627 µM)	2 (≈ 2.09 µM)	0.12 (≈ 0.125 µM)	4 (≈ 4.18 µM)	16 (≈ 16.7 µM)	2 (≈ 2.09 µM)							
CC[C@H]1OC(=O)[C@H](C)[C@@H](OC(=O)NCCCCCC#Cc2ccc3c(=O)c(C(=O)O)cn(C4CC4)c3c2)[C@H](C)[C@@H](O[C@@H]2O[C@H](C)C[C@H](N(C)C)[C@H]2O)[C@](C)(OC)C[C@@H](C)C(=O)[C@H](C)[C@H]2OC(=O)O[C@@]21C [79c]	2 (≈ 2.04 µM)	0.016 (≈ 0.0163 µM)	0.12 (≈ 0.122 µM)	0.06 (≈ 0.0612 µM)	16 (≈ 16.3 µM)	64 (≈ 65.3 µM)	4 (≈ 4.08 µM)							
CC[C@H]1OC(=O)[C@H](C)[C@@H](OC(=O)NCCCCCCCCCc2ccc3c(c2)c(=O)c(C(N)=O)cn3C2CC2)[C@H](C)[C@@H](O[C@@H]2O[C@H](C)C[C@H](N(C)C)[C@H]2O)[C@](C)(OC)C[C@@H](C)C(=NOC)[C@H](C)[C@H]2OC(=O)O[C@@]21C [63b]								16 (≈ 15.4 µM)	16 (≈ 15.4 µM)	2 (≈ 1.92 µM)	4 (≈ 3.85 µM)	> 256	> 256	64 (≈ 61.5 µM)
CC[C@H]1OC(=O)[C@H](C)[C@@H](OC(=O)NCCOCCC#Cc2ccc3c(c2)c(=O)c(C(=O)O)cn3C2CC2)[C@H](C)[C@@H](O[C@@H]2O[C@H](C)C[C@H](N(C)C)[C@H]2O)[C@](C)(O)C[C@@H](C)CN(C)[C@H](C)[C@H]2OC(=O)O[C@@]21C [116a]								512 (≈ 521 µM)	512 (≈ 521 µM)	4 (≈ 4.07 µM)	8 (≈ 8.14 µM)	64 (≈ 65.1 µM)	512 (≈ 521 µM)	128 (≈ 130 µM)
CC[C@H]1OC(=O)[C@H](C)[C@@H](OC(=O)NCCOCCC#Cc2ccc3c(=O)c(C(=O)O)cn(C4CC4)c3c2)[C@H](C)[C@@H](O[C@@H]2O[C@H](C)C[C@H](N(C)C)[C@H]2O)[C@](C)(OC)C[C@@H](C)C(=NOC)[C@H](C)[C@H]2OC(=O)O[C@@]21C [70c]								2 (≈ 1.98 µM)	0.25 (≈ 0.247 µM)	≤ 0.008	0.06 (≈ 0.0593 µM)	32 (≈ 31.6 µM)	128 (≈ 127 µM)	4 (≈ 3.96 µM)
CCC1OC(=O)C(C)C(OC(=O)NCCCCCCCc2ccc3c(=O)c(C(N)=O)cn(C4CC4)c3c2)C(C)C(OC2OC(C)CC(N(C)C)C2O)C(C)(OC)CC(C)C(=NOC)C(C)C2OC(=O)OC12C (centres unmarked) [61d]	16 (≈ 15.8 µM)	0.12 (≈ 0.119 µM)	16 (≈ 15.8 µM)	1 (≈ 0.988 µM)	> 256	> 256	64 (≈ 63.2 µM)							
CC[C@H]1OC(=O)[C@H](C)[C@@H](OC(=O)NCCCC#Cc2ccc3c(=O)c(C(=O)O)cn(C4CC4)c3c2)[C@H](C)[C@@H](O[C@@H]2O[C@H](C)C[C@H](N(C)C)[C@H]2O)[C@](C)(O)C[C@@H](C)CN(C)[C@H](C)[C@H]2OC(=O)O[C@@]21C [108c]								64 (≈ 67.1 µM)	128 (≈ 134 µM)	0.25 (≈ 0.262 µM)	1 (≈ 1.05 µM)	8 (≈ 8.39 µM)	512 (≈ 537 µM)	64 (≈ 67.1 µM)
CC[C@H]1OC(=O)[C@H](C)[C@@H](OC(=O)NCCCOCCC#Cc2ccc3c(c2)c(=O)c(C(=O)O)cn3C2CC2)[C@H](C)[C@@H](O[C@@H]2O[C@H](C)C[C@H](N(C)C)[C@H]2O)[C@](C)(O)C[C@@H](C)CN(C)[C@H](C)[C@H]2OC(=O)O[C@@]21C [117a]								512 (≈ 513 µM)	512 (≈ 513 µM)	1 (≈ 1 µM)	2 (≈ 2.01 µM)	32 (≈ 32.1 µM)	512 (≈ 513 µM)	32 (≈ 32.1 µM)
CC[C@H]1OC(=O)[C@H](C)[C@@H](OC(=O)NCCCCCCCCc2ccc3c(c2)c(=O)c(C(N)=O)cn3C2CC2)[C@H](C)[C@@H](O[C@@H]2O[C@H](C)C[C@H](N(C)C)[C@H]2O)[C@](C)(OC)C[C@@H](C)C(=NOC)[C@H](C)[C@H]2OC(=O)O[C@@]21C [62b]								16 (≈ 15.6 µM)	32 (≈ 31.2 µM)	0.5 (≈ 0.487 µM)	4 (≈ 3.9 µM)	> 256	> 256	128 (≈ 125 µM)
CC[C@H]1OC(=O)[C@H](C)[C@@H](OC(=O)NCCCCCCC#Cc2ccc3c(c2)c(=O)c(C(=O)O)cn3C2CC2)[C@H](C)[C@@H](O[C@@H]2O[C@H](C)C[C@H](N(C)C)[C@H]2O)[C@](C)(O)C[C@@H](C)CN(C)[C@H](C)[C@H]2OC(=O)O[C@@]21C [111a]								128 (≈ 129 µM)	256 (≈ 257 µM)	0.5 (≈ 0.502 µM)	2 (≈ 2.01 µM)	16 (≈ 16.1 µM)	128 (≈ 129 µM)	32 (≈ 32.2 µM)
CC[C@H]1OC(=O)[C@H](C)[C@@H](OC(=O)NCCCCCC#Cc2ccc3c(=O)c(C(=O)O)cn(C4CC4)c3c2)[C@H](C)[C@@H](O[C@@H]2O[C@H](C)C[C@H](N(C)C)[C@H]2O)[C@](C)(O)C[C@@H](C)CN(C)[C@H](C)[C@H]2OC(=O)O[C@@]21C [110c]								2 (≈ 2.04 µM)	1 (≈ 1.02 µM)	0.016 (≈ 0.0163 µM)	0.06 (≈ 0.0611 µM)	8 (≈ 8.15 µM)	128 (≈ 130 µM)	4 (≈ 4.08 µM)
CC[C@H]1OC(=O)[C@H](C)[C@@H](OC(=O)NCCCCCc2ccc3c(c2)c(=O)c(C(N)=O)cn3C2CC2)[C@H](C)[C@@H](O[C@@H]2O[C@H](C)C[C@H](N(C)C)[C@H]2O)[C@](C)(OC)C[C@@H](C)C(=NOC)[C@H](C)[C@H]2OC(=O)O[C@@]21C [59b]								64 (≈ 65 µM)	64 (≈ 65 µM)	0.25 (≈ 0.254 µM)	1 (≈ 1.02 µM)	> 256	> 256	128 (≈ 130 µM)
CCC1OC(=O)C(C)C(OC(=O)NCCCOCCC#Cc2ccc3c(=O)c(C(=O)O)cn(C4CC4)c3c2)C(C)C(OC2OC(C)CC(N(C)C)C2O)C(C)(OC)CC(C)C(=NOC)C(C)C2OC(=O)OC12C (centres unmarked) [72c]	1 (≈ 0.975 µM)	≤ 0.008	0.12 (≈ 0.117 µM)	≤ 0.008	16 (≈ 15.6 µM)	32 (≈ 31.2 µM)	2 (≈ 1.95 µM)							
CC[C@H]1OC(=O)[C@H](C)[C@@H](OC(=O)NCCNCCC#Cc2ccc3c(=O)c(C(=O)O)cn(C4CC4)c3c2)[C@H](C)[C@@H](O[C@@H]2O[C@H](C)C[C@H](N(C)C)[C@H]2O)[C@](C)(OC)C[C@@H](C)C(=NOC)[C@H](C)[C@H]2OC(=O)O[C@@]21C [74c]								2 (≈ 1.98 µM)	0.5 (≈ 0.495 µM)	0.016 (≈ 0.0158 µM)	0.12 (≈ 0.119 µM)	16 (≈ 15.8 µM)	256 (≈ 253 µM)	8 (≈ 7.92 µM)
CC[C@H]1OC(=O)[C@H](C)[C@@H](OC(=O)NCCCCCCC#Cc2ccc3c(=O)c(C(=O)O)cn(C4CC4)c3c2)[C@H](C)[C@@H](O[C@@H]2O[C@H](C)C[C@H](N(C)C)[C@H]2O)[C@](C)(O)C[C@@H](C)CN(C)[C@H](C)[C@H]2OC(=O)O[C@@]21C [111c]								2 (≈ 2.01 µM)	0.5 (≈ 0.502 µM)	≤ 0.008	≤ 0.008	8 (≈ 8.04 µM)	16 (≈ 16.1 µM)	4 (≈ 4.02 µM)
CC[C@H]1OC(=O)[C@H](C)[C@@H](OC(=O)NCCCCCC#Cc2ccc3c(=O)c(C(=O)NO)cn(C4CC4)c3c2)[C@H](C)[C@@H](O[C@@H]2O[C@H](C)C[C@H](N(C)C)[C@H]2O)[C@](C)(OC)C[C@@H](C)C(=NOC)[C@H](C)[C@H]2OC(=O)O[C@@]21C [57e]								128 (≈ 125 µM)	2 (≈ 1.95 µM)	0.016 (≈ 0.0156 µM)	0.5 (≈ 0.488 µM)	32 (≈ 31.2 µM)	128 (≈ 125 µM)	16 (≈ 15.6 µM)
CC[C@H]1OC(=O)[C@H](C)[C@@H](OC(=O)NCCCCCC#Cc2ccc3c(=O)c(C(=O)O)cn(C4CC4)c3c2)[C@H](C)[C@@H](O[C@@H]2O[C@H](C)C[C@H](N(C)C)[C@H]2O)[C@](C)(OC)C[C@@H](C)C(=O)[C@H](C)[C@H]2NC(=O)O[C@@]21C [87c]	1 (≈ 1.02 µM)	≤ 0.008	0.06 (≈ 0.0613 µM)	0.03 (≈ 0.0306 µM)	8 (≈ 8.17 µM)	64 (≈ 65.4 µM)	1 (≈ 1.02 µM)							
CCC1OC(=O)C(C)C(OC(=O)NCCCCCCCc2ccc3c(=O)c(C(=O)O)cn(C4CC4)c3c2)C(C)C(OC2OC(C)CC(N(C)C)C2O)C(C)(OC)CC(C)C(=NOC)C(C)C2OC(=O)OC12C (centres unmarked) [61c]	2 (≈ 1.97 µM)	≤ 0.008	0.5 (≈ 0.493 µM)	≤ 0.008	> 256	64 (≈ 63.2 µM)	8 (≈ 7.9 µM)							
CCC1OC(=O)C(C)C(OC(=O)NCCCCCCCc2ccc3c(c2)c(=O)c(C(=O)O)cn3C2CC2)C(C)C(OC2OC(C)CC(N(C)C)C2O)C(C)(OC)CC(C)C(=NOC)C(C)C2OC(=O)OC12C (centres unmarked) [61a]	32 (≈ 31.6 µM)	0.12 (≈ 0.118 µM)	64 (≈ 63.2 µM)	0.5 (≈ 0.493 µM)	> 256	256 (≈ 253 µM)	8 (≈ 7.9 µM)							
CCC1OC(=O)C(C)C(OC(=O)NCCOCCCC#Cc2ccc3c(=O)c(C(=O)O)cn(C4CC4)c3c2)C(C)C(OC2OC(C)CC(N(C)C)C2O)C(C)(OC)CC(C)C(=NOC)C(C)C2OC(=O)OC12C (centres unmarked) [71c]	2 (≈ 1.95 µM)	≤ 0.008	0.12 (≈ 0.117 µM)	≤ 0.008	32 (≈ 31.2 µM)	256 (≈ 250 µM)	4 (≈ 3.9 µM)							
